Measurements published in ChEMBL document CHEMBL3621055, “Mechanism of forming trimer, self-assembling nano-particle and inhibiting tumor growth of small molecule CIPPCT” (Medchemcomm, 2014).
Active and inactive are the calls of the source. No cut-off for these calls is given here.

Columns and labels:
CCRF S-180 [1] = test: Antitumor activity against mouse S180 cells allografted in ICR mouse assessed as tumor growth inhibition at 2 umol/kg, ip qd for 7 days measured 24 hrs after last dose; format: functional, organism-based
HT-29 = test: Cytotoxicity against human HT-29 cells after 48 hrs by MTT assay; format: functional, cell-based; settings: HT-29, 48 h
CCRF S-180 [2] = test: Antitumor activity against mouse S180 cells allografted in ICR mouse assessed as tumor growth inhibition at 4 umol/kg, po qd for 7 days measured 24 hrs after last dose; format: functional, organism-based
HL-60 = test: Cytotoxicity against human HL60 cells after 48 hrs by MTT assay; format: functional, cell-based; settings: HL-60, 48 h
CCRF S-180 [3] = test: Antitumor activity against mouse S180 cells allografted in ICR mouse assessed as tumor growth inhibition administered as po qd for 7 days measured 24 hrs after last dose; format: functional
HepG2 [4] = test: Drug uptake in human HepG2 cells at 10^-10 M after 15 to 240 mins by fluorescence assay; format: ADME, cell-based; settings: hepg2, 0.0001 µM
HepG2 [5] = test: Cytotoxicity against human HepG2 cells after 48 hrs by MTT assay; format: functional, cell-based; settings: HepG2, 48 h
SW480 = test: Cytotoxicity against human SW480 cells after 48 hrs by MTT assay; format: functional, cell-based; settings: SW480, 48 h
CCRF S-180 [6] = test: Antitumor activity against mouse S180 cells allografted in ICR mouse assessed as decrease of uPA levels in serum administered as po qd for 7 days measured 24 hrs after last dose; format: functional, organism-based
HeLa = test: Cytotoxicity against human HeLa cells after 48 hrs by MTT assay; format: functional, cell-based

**Q.** How did the inhibition (CCRF S-180 [1]) turn out when COc1cccc2c1C(=O)c1c(O)c3c(c(O)c1C2=O)C[C@@](O)(C(=O)CO)C[C@@H]3O[C@H]1C[C@H](N)[C@H](O)[C@H](C)O1 was run?
**A.** The inhibition was “Active”.

**Q.** With C[C@H](O)[C@H](NC(=O)[C@H](Cc1c[nH]c2ccccc12)NCC[C@H]1c2[nH]c3ccccc3c2C[C@H]2C(=O)N3CCC[C@H]3C(=O)N21)C(=O)OCc1ccccc1 as the compound, how does the IC50 (HT-29) read?
**A.** The IC50 was greater than 20 µM.

**Q.** And the inhibition (CCRF S-180 [2])?
**A.** The inhibition was “Active”.

**Q.** And the IC50 (HL-60)?
**A.** Its IC50 is greater than 10 µM.

**Q.** And the MED (CCRF S-180 [3])?
**A.** The MED was 0.16 µmol/kg.

**Q.** And the inhibition (CCRF S-180 [3])?
**A.** Its inhibition is “Dose-dependent effect”.

**Q.** What about the Drug uptake (HepG2 [4]) of the same compound?
**A.** The Drug uptake was “Active”.

**Q.** What about the IC50 (HepG2 [5]) of the same compound?
**A.** Its IC50 is greater than 60 µM.

**Q.** What about the IC50 (SW480) of the same compound?
**A.** Its IC50 is greater than 100 µM.

**Q.** And the Activity (CCRF S-180 [6])?
**A.** The Activity was “Dose-dependent effect”.

**Q.** What about the IC50 (HeLa) of the same compound?
**A.** Its IC50 is greater than 100 µM.
